Measured values published in patent publication US20240208994A1, “PLASMA KALLIKREIN INHIBITORS” (Merck Sharp & Dohme LLC, priority 2021, published 2024).

How the values were obtained:
Human plasma kallikrein = molecular target: T1, Human plasma kallikrein (Homo sapiens, UniProt P03952); experiment: Plasma Kallikrein Assay; format: biochemical; details: purified Human plasma kallikrein 0.5 nM, substrate Acetyl-K-P-R-AFC, HEPES pH 7.4, fluorescence 405 Ex/510 Em; read-out: PKal IC50
T1 construct: yields a heavy chain (371 amino acids) and a light chain (248 amino acids); purchased Enzyme Research Laboratories
Protocol: (§1) The effectiveness of a compound of the present invention as an inhibitor of plasma kallikrein can be determined using a relevant purified serine protease, and an appropriate synthetic substrate. The rate of hydrolysis of the chromogenic or fluorogenic substrate by the relevant serine protease was measured both in the absence and presence of compounds of the present invention. Assays were conducted at rt or at 37° C. […] A decrease in the rate of fluorescence change in the presence of inhibitor is indicative of enzyme inhibition. Such methods are known to one skilled in the art. The results of this assay are expressed as the half-maximal inhibitory concentrations (IC50), or the inhibitory constant, Ki.
Plasma kallikrein determinations were made in 50 mM HEPES buffer at pH 7.4 containing 150 mM NaCl, 5 mM CaCl2), and 0.1% PEG 8000 (polyethylene glycol: Fisher Scientific). Determinations were made using purified Human plasma kallikrein at a final concentration of 0.5 nM (Enzyme Research Laboratories) and the synthetic substrate, Acetyl-K-P-R-AFC (Sigma #C6608) at a concentration of […].
Activity assays were performed by diluting a stock solution of substrate at least tenfold to a final concentration ≤0.2 Km into a solution containing enzyme or enzyme equilibrated with inhibitor. Times required to achieve equilibration between enzyme and inhibitor were determined in control experiments. The reactions were performed under linear progress curve conditions and fluorescence increase measured at 405 Ex/510 Em nm. Values were converted to percent inhibition of the control reaction (after subtracting 100% Inhibition value). IC50 was determined by inflection point from a four parameter logistic curve fit. Ki was calculated using the Cheng Prusoff equation, Ki=IC50/(1+([S]/Km)).

human factor XIa = human factor XIa (Homo sapiens, UniProt P03951); experiment: Factor XIa Assay; format: biochemical; details: human factor XIa 0.04 nM, 30 min pre-incubation at 25° C., substrate GPR-AFC, pH 7.4, 60 min incubation; read-out: FXIa IC50
Protocol: as §1, with “Coagulation factor XIa” for “plasma kallikrein”
Compounds were pre-incubated for 30 min at 25° C. with human (0.04 nM) factor XIa in 50 mM HEPES buffer with 150 mM sodium chloride, 5 mM calcium chloride, 0.1% PEG 8000, pH 7.4. factor XIa enzymatic activity was determined by addition of the substrate glycine-proline-arginine-7-amido-4-trifluoromethylcoumarin (GPR-AFC) and measurement of the fluorescence at 400/505 nm after a 60 min incubation at 25° C. The % inhibition for each data point was calculated from the data and analyzed using the log (inhibitor) vs. response four parameters equation to determine the half-maximal inhibitory concentrations (IC50). The IC50 were converted to equilibrium inhibitory constants (Ki) using the Cheng-Prusoff equation.

T1 sequence (P03952 391-638 limits assumed): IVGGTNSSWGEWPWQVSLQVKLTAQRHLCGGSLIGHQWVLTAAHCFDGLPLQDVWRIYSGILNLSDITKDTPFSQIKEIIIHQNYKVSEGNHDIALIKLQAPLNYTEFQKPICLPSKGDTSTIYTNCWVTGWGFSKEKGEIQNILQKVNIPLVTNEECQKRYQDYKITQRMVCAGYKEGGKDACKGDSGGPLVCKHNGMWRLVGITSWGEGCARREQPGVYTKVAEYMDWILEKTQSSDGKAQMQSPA
T1 sequence (P03952 20-390 partner limits assumed): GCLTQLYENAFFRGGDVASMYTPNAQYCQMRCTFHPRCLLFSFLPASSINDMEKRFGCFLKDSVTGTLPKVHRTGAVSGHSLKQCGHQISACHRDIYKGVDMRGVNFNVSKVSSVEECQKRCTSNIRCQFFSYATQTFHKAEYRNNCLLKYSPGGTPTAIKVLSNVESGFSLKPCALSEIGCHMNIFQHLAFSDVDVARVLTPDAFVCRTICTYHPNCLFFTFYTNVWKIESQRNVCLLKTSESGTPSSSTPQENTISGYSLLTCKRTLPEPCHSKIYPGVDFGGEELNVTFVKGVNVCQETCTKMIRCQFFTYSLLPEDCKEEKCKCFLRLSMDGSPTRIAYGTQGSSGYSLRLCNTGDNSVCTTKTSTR
Chain of human factor XIa (P03951 388-625 limits assumed): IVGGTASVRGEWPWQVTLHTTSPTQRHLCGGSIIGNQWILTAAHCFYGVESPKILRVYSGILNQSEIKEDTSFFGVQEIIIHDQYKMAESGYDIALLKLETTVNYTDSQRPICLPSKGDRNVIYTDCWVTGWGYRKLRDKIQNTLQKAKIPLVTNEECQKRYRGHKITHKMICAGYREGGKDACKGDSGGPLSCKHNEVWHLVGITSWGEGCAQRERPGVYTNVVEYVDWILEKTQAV
Chain of human factor XIa (P03951 19-387 partner limits assumed): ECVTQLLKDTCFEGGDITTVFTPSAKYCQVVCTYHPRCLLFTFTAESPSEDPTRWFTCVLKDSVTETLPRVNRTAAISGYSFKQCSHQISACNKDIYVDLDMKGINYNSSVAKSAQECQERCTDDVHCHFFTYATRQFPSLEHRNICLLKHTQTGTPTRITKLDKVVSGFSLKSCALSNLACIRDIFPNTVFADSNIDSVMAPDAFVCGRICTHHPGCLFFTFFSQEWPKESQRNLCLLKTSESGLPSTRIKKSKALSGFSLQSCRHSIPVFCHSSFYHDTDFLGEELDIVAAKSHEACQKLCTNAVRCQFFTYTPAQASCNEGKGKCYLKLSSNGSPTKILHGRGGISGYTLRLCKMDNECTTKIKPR

IC50 (Human plasma kallikrein) [nM] | IC50 (human factor XIa) [nM] | Structure (SMILES)
28 | 665 | Nc1cc(-c2ccccn2)nn1CC(=O)N1CC[C@@]2(C1)OC(=O)Nc1ccc(Cl)c(F)c12 [Example 38, (R)-1′-(2-(5-Amino-3-(pyridin-2-y1)-1H-pyrazol-1-yl)acetyl)-6-chloro-5-fluorospiro[benzo[d][1,3]oxazine-4,3′-pyrrolidin]-2(1H)-one]
27.4 | 506 | Nc1cc(C2CC2)nn1CC(=O)N1CC[C@@]2(C1)OC(=O)Nc1ccc(Cl)c(F)c12 [Example 10]
18.1 | 286 | Nc1cc(-c2nccs2)nn1CC(=O)N1CC[C@@]2(C1)OC(=O)Nc1ccc(Cl)c(F)c12 [Example 41, (R)-1′-(2-(5-Amino-3-(thiazol-2-y1)-1H-pyrazol-1-yl)acetyl)-6-chloro-5-fluorospiro[benzo[d] [1,3]oxazine-4,3′-pyrrolidin]-2(1H)-one]
40.3 | 2760 | Cc1ccc(-c2cc(N)n(CC(=O)N3CC[C@@]4(C3)OC(=O)Nc3ccc(Cl)c(F)c34)n2)n1C [Example 45, (R)-1′-(2-(5-Amino-3-(1,5-dimethyl-1H-pyrrol-2-y1)-1H-pyrazol-1-yl)acetyl)-6-chloro-5-fluorospiro[benzo[d][1,3]oxazine-4,3′-pyrrolidin]-2(1H)-one]
5.4 | 422 | Nc1cc(-c2ccccc2C(F)(F)F)nn1CC(=O)N1CC[C@@]2(C1)OC(=O)Nc1ccc(Cl)c(F)c12 [Example 50, (R)-1′-(2-(5-Amino-3-(2-(trifluoromethyl)phenyl)-1H-pyrazol-1-yl)acetyl)-6-chloro-5-fluorospiro[benzo[d][1,3]oxazine-4,3′-pyrrolidin]-2(1H)-one]
11.8 | 1790 | Nc1cc(-c2ccccc2)nn1CC(=O)N1CCC[C@@]2(C1)OC(=O)Nc1ccc(Cl)c(F)c12 [Example 23, (R)-1′-(2-(5-Amino-3-phenyl-1H-pyrazol-1-yl)acetyl)-6-chloro-5-fluorospiro[benzo[d][1,3]oxazine-4,3′-piperidin]-2(1H)-one]
13.9 | 613 | N#Cc1ccc(-c2cc(N)n(CC(=O)N3CC[C@@]4(C3)OC(=O)Nc3ccc(Cl)c(F)c34)n2)cc1 [Example 63, (R)-4-(5-Amino-1-(2-(6-chloro-5-fluoro-2-oxo-1,2-dihydrospiro[benzo[d][1,3]oxazine-4,3′-pyrrolidin]-l′-xl)-2-oxoethyl)-1H-pyrazol-3-yl)benzonitrile]
21 | 2550 | Nc1cc(-c2ccc(F)cc2)nn1CC(=O)N1CCC[C@@]2(C1)OC(=O)Nc1ccc(Cl)c(F)c12 [Example 17, (R)-1′-(2-(5-Amino-3-(4-fluorophenyl)-1H-pyrazol-1-yl)acetyl)-6-chloro-5-fluorospiro[benzo[d][1,3]oxazine-4,3′-piperidin]-2(1H)-one]
14.3 | 739 | Nc1cc(-c2ccc(F)c(F)c2)nn1CC(=O)N1CC[C@@]2(C1)OC(=O)Nc1ccc(Cl)c(F)c12 [Example 47, (R)-1′-(2-(5-Amino-3-(3,4-difluorophenyl)-1H-pyrazol-1-yl)acetyl)-6-chloro-5-fluorospiro[benzo[d][1,3]oxazine-4,3′-pyrrolidin]-2(1H)-one]
12 | 433 | N#Cc1cccc(-c2cc(N)n(CC(=O)N3CC[C@@]4(C3)OC(=O)Nc3ccc(Cl)c(F)c34)n2)c1 [Example 67, (R)-3-(5-Amino-1-(2-(6-chloro-5-fluoro-2-oxo-1,2-dihydrospiro[benzo[d] [1,3]oxazine-4,3'-pyrrolidin]-1'-y1)-2-oxoethyl)-1H-pyrazol-3-y1)benzonitrile]
23.5 | 1770 | COc1cccc(OC)c1-c1cc(N)n(CC(=O)N2CC[C@@]3(C2)OC(=O)Nc2ccc(Cl)c(F)c23)n1 [Example 51, (R)-1′-(2-(5-Amino-3-(2,6-dimethoxyphenyl)-1H-pyrazol-1-yl)acetyl)-6-chloro-5-fluorospiro[benzo[d][1,3]oxazine-4,3′-pyrrolidin]-2(1H)-one]

More lines, now with the values behind:

Structure (SMILES) | IC50 (Human plasma kallikrein) [nM] | IC50 (human factor XIa) [nM]
Nc1cc(C2CCCCC2)nn1CC(=O)N1CC[C@@]2(C1)OC(=O)Nc1ccc(Cl)c(F)c12 [Example 52, (R)-1′-(2-(5-Amino-3-cyclohexy1-1H-pyrazol-1-yl)acetyl)-6-chloro-5-fluorospiro[benzo[d][1,3]oxazine-4,3′-pyrrolidin]-2(1H)-one] | 20.7 | 426
Nc1c(Cl)c(-c2ccccc2)nn1CC(=O)N1CCC[C@@]2(C1)OC(=O)Nc1ccc(Cl)c(F)c12 [Example 22, (R)-1′-(2-(5-Amino-4-chloro-3-phenyl-1H-pyrazol-1-yl)acetyl)-6-chloro-5-fluorospiro[benzo[d][1,3]oxazine-4,3′-piperidin]-2(1H)-one] | 26.3 | 516
Nc1c(Cl)c(-c2ncccc2F)nn1CC(=O)N1CCC[C@@]2(C1)OC(=O)Nc1ccc(Cl)c(F)c12 [Example 34, (R)-1′-(2-(5-Amino-4-chloro-3-(3-fluoropyridin-2-y1)-1H-pyrazol-1-yl)acetyl)-6-chloro-5-fluorospiro[benzo[d][1,3]oxazine-4,3′-piperidin]-2(1H)-one] | 8.9 | 177
Nc1c(Cl)c(-c2ccc(F)cc2F)nn1CC(=O)N1CCC[C@@]2(C1)OC(=O)Nc1ccc(Cl)c(F)c12 [Example 21, (R)-1′-(2-(5-Amino-4-chloro-3-(2,4-difluorophenyl)-1H-pyrazol-1-yl)acetyl)-6-chloro-5-fluorospiro[benzo[d][1,3]oxazine-4,3′-piperidin]-2(1H)-one] | 19 | 325
Nc1c(Cl)c(-c2ncc(F)cc2F)nn1CC(=O)N1CCC[C@@]2(C1)OC(=O)Nc1ccc(Cl)c(F)c12 [Example 33, (R)-1′-(2-(5-Amino-4-chloro-3-(3,5-difluoropyridin-2-y1)-1H-pyrazol-1-yl)acetyl)-6-chloro-5-fluorospiro[benzo[d][1,3]oxazine-4,3′-piperidin]-2(1H)-one] | 7.7 | 187
Nc1cc(-c2ccc(OC(F)F)cc2)nn1CC(=O)N1CC[C@@]2(C1)OC(=O)Nc1ccc(Cl)c(F)c12 [Example 66, (R)-1′-(2-(5-Amino-3-(4-(difluoromethoxy)pheny1)-1H-pyrazol-1-yl)acetyl)-6-chloro-5-fluorospiro[benzo[d] [1,3]oxazine-4,3′-pyrrolidin]-2(1H)-one] | 10.3 | 640
Nc1c(Cl)c(-c2ccc(F)cc2F)nn1CC(=O)N1CC[C@@]2(C1)OC(=O)Nc1ccc(Cl)c(F)c12 [Example 19, (R)-1′-(2-(5-Amino-4-chloro-3-(2,4-difluorophenyl)-1H-pyrazol-1-yl)acetyl)-6-chloro-5-fluorospiro[benzo[d][1.3]oxazine-4,3′-pyrrolidin]-2(1H)-one 2,2,2-trifluoroacetate] | 30.3 | 134
CC1(C)C(c2cc(N)n(CC(=O)N3CC[C@@]4(C3)OC(=O)Nc3ccc(Cl)c(F)c34)n2)C1(C)C [Example 53, (R)-1′-(2-(5-Amino-3-(2,2,3,3-tetramethylcyclopropyl)-1H-pyrazol-1-yl)acetyl)-6-chloro-5-fluorospiro[benzo[d][1,3]oxazine-4,3′-pyrrolidin]-2(1H)-one] | 11.5 | 320
